These results are taken from patent publication US7829563B2, “Aminoamides as orexin antagonists” (Hoffmann-La Roche Inc., priority 2007, dated 2010).

Structures can show the parent of a compound that is named as a salt.

One may read the Kb as the equilibrium dissociation constant of an antagonist, usually derived from a functional assay.

This assay has as its target T1, human orexin-2 (hOX2) receptors (Homo sapiens, UniProt O43614).
T1 construct: expressed in transfected cells
T1 sequence (O43614 1-444): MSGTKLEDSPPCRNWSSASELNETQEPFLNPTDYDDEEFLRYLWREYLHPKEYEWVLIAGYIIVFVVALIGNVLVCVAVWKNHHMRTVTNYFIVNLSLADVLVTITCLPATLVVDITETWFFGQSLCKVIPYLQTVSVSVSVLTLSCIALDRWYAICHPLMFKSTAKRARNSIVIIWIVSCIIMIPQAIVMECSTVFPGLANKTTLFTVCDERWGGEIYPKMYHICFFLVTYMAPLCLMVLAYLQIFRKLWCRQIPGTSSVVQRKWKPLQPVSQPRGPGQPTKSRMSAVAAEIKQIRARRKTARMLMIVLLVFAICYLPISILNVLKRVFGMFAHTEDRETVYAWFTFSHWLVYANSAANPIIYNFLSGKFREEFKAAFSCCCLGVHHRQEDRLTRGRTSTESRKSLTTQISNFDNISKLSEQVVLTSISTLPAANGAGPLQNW
The experiment in a line: Intracellular Ca2+ mobilization assay (FLIPR), antagonism of orexin-A. Conditions: CHO(dHFr−) cells stably expressing hOX2; orexin-A at EC80 as agonist; Kb=IC50/(1+[A]/EC50); read-out: Kb (μM) OX2R (human). The assay is classed as cell-based. The protocol: R^7 and R^8 in scheme 5 are hydrogen, and the other substituents are as described above The compounds were investigated in accordance with the test given hereinafter. Intracellular Ca^2+ Mobilization Assay
The Chinese Hamster Ovary (dHFr−) mutant cell line stably expressing human orexin-1 (hOX1) or human orexin-2 (hOX2) receptors were maintained in Dulbecco's Modified Eagle Medium (1×) with GlutaMax™ 1, 4500 mg/L D-Glucose and Sodium Pyruvate (Catalog No. 31966-021, Invitrogen, Carlsbad, Calif.), 5% dialyzed fetal calf serum (Catalog No. 26400-044), 100 μg/ml penicillin and 100 μg/ml streptomycin. The cells were seeded at 5×10^4 cells/well in the poly-D-lysine treated, 96-well, black/clear-bottomed plates (Catalog No. BD356640, BD Biosciences, Palo Alto, Calif.). 24 h later, the cells were loaded for 1 h at 37° C. with 4 μM Flou-4 acetoxymethyl ester (Catalog No. F-14202, Molecular Probes, Eugene, Oreg.) in FLIPR buffer (1×HBSS, 20 mM HEPES, 2.5 mM Probenecid). Hanks' Balanced Salt Solution (HBSS) (10×) (catalog No. 14065-049) and HEPES (1M) (catalog No. 15630-056) were purchased from Invitrogen, Carlsbad, Calif. Probenecid (250 mM) (catalog No. P8761) was from Sigma, Buchs, Switzerland. The cells were washed five times with FLIPR buffer to remove excess dye and intracellular calcium mobilization, [Ca^2+]i were measured using a Fluorometric Imaging Plate Reader (FLIPR-96, Molecular Devices, Menlo Park, Calif.) as described previously (Malherbe et al., Mol. Pharmacol., 64, 823-832, 2003). Orexin A (catalog No. 1455, Toris Cookson Ltd, Bristol, UK) was used as agonist. Orexin A ([…] stock solution in DMSO) was diluted in FLIPR buffer+0.1% BSA. The EC50 and EC80 values of orexin-A were measured daily from standard agonist concentration-response curves in CHO(dHFr−)-OX1R and —OX2R cell lines. All compounds were dissolved in 100% DMSO. Inhibition curves were determined by addition of 11 concentrations (0.0001-10 μM) of inhibitory compounds and using EC80 value of orexin-A as agonist (a concentration which gave 80% of max agonist response, determined daily). The antagonists were applied 25 min (incubation at 37° C.) before the application of the agonist. Responses were measured as peak increase in fluorescence minus basal, normalized to the maximal stimulatory effect induced by EC80 value of orexin-A or orexin-B. Inhibition curves were fitted according to the Hill equation: y=100/(1+(x/IC50)^nH), where nH=slope factor using Excel-fit 4 software (Microsoft). Kb values were calculated according to the following equation Kb=IC50/(1+[A]/EC50) where A is the concentration of agonist added which is very close to agonist EC80 value, and IC50 and EC50 values were derived from the antagonist inhibition and orexin-A or B agonist curves, respectively.
Take `CNC(=O)[C@H](N[C@@H](CCc1ccccc1)c1ccc(OC)c(OC)c1)c1ccccc1` (single isomer, unassigned) [Example 314]: the Kb amounted to 0.0067 µM. With `CCNC(=O)[C@H](N[C@@H](CCc1ccc(C(F)(F)F)nc1)c1ccc(F)c(C)c1)c1ccccc1` (racemic) [Example 340, (R,S)—N-Ethyl-2-[(S,R)-1-(4-fluoro-3-methyl-phenyl)-3-(6-trifluoromethyl-pyridin-3-yl)-propylamino]-2-phenyl-acetamide] the figure was 0.0178 µM. With `CNC(=O)[C@H](N[C@@H](CCc1ccc(C(F)(F)F)cc1)c1ccc(Cl)c(OC)c1)c1ccccc1` (racemic) [Example 177, (S,R)-2-[(R,S)-1-(4-Chloro-3-methoxy-phenyl)-3-(4-trifluoromethyl-phenyl)-propylamino]-N-methyl-2-phenyl-acetamide] the figure was 0.0099 µM. With `CNC(=O)[C@H](N[C@@H](CCc1ccc(Cl)nc1)c1ccc(OC(F)F)c(OC(F)F)c1)c1ccccc1` (racemic) [Example 296, (S,R)-2-[(R,S)-1-(3,4-Bis-difluoromethoxy-phenyl)-3-(6-chloro-pyridin-3-yl)-propylamino]-N-methyl-2-phenyl-acetamide] the figure was 0.013 µM; with `CNC(=O)C(NC(CCc1ccc(C(F)(F)F)nc1)c1ccc(OC(F)F)c(OC(F)F)c1)c1ccccc1` (mixture of isomers) [Example 263, 2-[1-(3,4-Bis-difluoromethoxy-phenyl)-3-(6-trifluoromethyl-pyridin-3-yl)-propylamino]-N-methyl-2-phenyl-acetamide], 0.0102 µM. Consider `CNC(=O)[C@H](N[C@@H](CCc1ccc(C(F)(F)F)nc1)c1ccc(Cl)c(OC)c1)c1ccccc1` (racemic) [Example 216, (S,R)-2-[(R,S)-1-(4-Chloro-3-methoxy-phenyl)-3-(6-trifluoromethyl-pyridin-3-yl)-propylamino]-N-methyl-2-phenyl-acetamide], for which the Kb came out at 0.0073 µM. With `CNC(=O)[C@H](N[C@@H](CCc1ccc(C(F)(F)F)nc1)c1ccc(OC)c(OC)c1)c1ccccc1` [Example 200, (R)-2-[(S)-1-(3,4-Dimethoxy-phenyl)-3-(6-trifluoromethyl-pyridin-3-yl)-propylamino]-N-methyl-2-phenyl-acetamide hydrochloride] the figure was 0.0028 µM; with `CNC(=O)[C@H](N[C@@H](CCc1ccc(C(F)(F)F)cc1)c1cc(C)ccc1F)c1ccc(F)cc1` [Example 124, (R)-2-[(S)-1-(2-Fluoro-5-methyl-phenyl)-3-(4-trifluoromethyl-phenyl)-propylamino]-2-(4-fluoro-phenyl)-N-methyl-acetamide], 0.0123 µM; with `CNC(=O)[C@H](N[C@@H](CCc1ccc(OC)cc1)c1cccnc1OC)c1ccccc1` (racemic) [Example 135, (S,R)-2-[(R,S)-3-(4-Methoxy-phenyl)-1-(2-methoxy-pyridin-3-yl)-propylamino]-N-methyl-2-phenyl-acetamide], 0.0155 µM. `CNC(=O)[C@H](N[C@@H](CCc1ccc(C(F)(F)F)nc1)c1ccc(OC)c(OC)c1)c1ccccc1` (racemic) [Example 171, (S,R)-2-[(R,S)-1-(3,4-Dimethoxy-phenyl)-3-(6-trifluoromethyl-pyridin-3-yl)-propylamino]-N-methyl-2-phenyl-acetamide]: the Kb was found to be 0.005 µM. For `CNC(=O)[C@H](N[C@@H](CCc1ccc(C(F)(F)F)nc1)c1ccc(C)c(OC)c1)c1ccccc1` (racemic) [Example 253, (S,R)-2-[(R,S)-1-(3-Methoxy-4-methyl-phenyl)-3-(6-trifluoromethyl-pyridin-3-yl)-propylamino]-N-methyl-2-phenyl-acetamide], the Kb was found to be 0.0034 µM.

As for `CNC(=O)[C@H](N[C@@H](CCc1ccc(C(F)(F)F)cc1)c1ccc(OC)c(OC)c1)c1ccc(F)cc1` [Example 95, (R)-2-[(S)-1-(3,4-Dimethoxy-phenyl)-3-(4-trifluoromethyl-phenyl)-propylamino]-2-(4-fluoro-phenyl)-N-methyl-acetamide], the Kb worked out at 0.0086 µM. With `CNC(=O)[C@H](N[C@@H](CCc1ccc(C(F)(F)F)cc1)c1ccc(OC)c(OC)c1)c1ccccc1` (racemic) [Example 142, (S,R)-2-[(R,S)-1-(3,4-Dimethoxy-phenyl)-3-(4-trifluoromethyl-phenyl)-propylamino]-N-methyl-2-phenyl-acetamide], the Kb was 0.003 µM.

With `CNC(=O)[C@@H](N[C@@H](CCc1ccc(C(F)(F)F)cc1)c1ccc(OC)c(OC)c1)c1ccccc1` (racemic) [Example 141, (S,R)-2-[(S,R)-1-(3,4-Dimethoxy-phenyl)-3-(4-trifluoromethyl-phenyl)-propylamino]-N-methyl-2-phenyl-acetamide], the Kb amounted to 0.0168 µM. The figure for `CNC(=O)[C@H](N[C@@H](CCc1ccc(C(F)(F)F)nc1)c1ccc(F)c(C)c1)c1ccc(OC)cc1` (racemic) [Example 350, (R,S)-2-[(S,R)-1-(4-fluoro-3-methyl-phenyl)-3-(6-trifluoromethyl-pyridin-3-yl)-propylamino]-2-(4-methoxy-phenyl)-N-methyl-acetamide] is 0.0164 µM. The figure for `CNC(=O)[C@H](NC(CCc1ccc(C(F)(F)F)cc1)c1ccc(OC)c(OC)c1)c1ccccc1` (single isomer, unassigned) [Example 7, (R)-2-[(S or R)-1-(3,4-Dimethoxy-phenyl)-3-(4-trifluoromethyl-phenyl)-propylamino]-N-methyl-2-phenyl-acetamide] is 0.0142 µM. Regarding `CNC(=O)[C@H](N[C@@H](CCc1ccc(C(F)(F)F)nc1)c1ccc(F)c(OC)c1)c1ccc(Cl)cc1` (racemic) [Example 230, (S,R)-2-(4-Chloro-phenyl)-2-[(R,S)-1-(4-fluoro-3-methoxy-phenyl)-3-(6-trifluoromethyl-pyridin-3-yl)-propylamino]-N-methyl-acetamide], the Kb is 0.0117 µM. The figure for `CNC(=O)[C@@H](N[C@@H](CCc1ccc(C(F)(F)F)cc1)c1ccc(OC)c(OC)c1)c1ccc(Cl)cc1` (racemic) [Example 33, (S,R)-2-(4-Chloro-phenyl)-2-[(S,R)-1-(3,4-dimethoxy-phenyl)-3-(4-trifluoromethyl-phenyl)-propylamino]-N-methyl-acetamide] is 0.009 µM. With `CNC(=O)[C@H](N[C@@H](CCc1ccc(C(F)(F)F)nc1)c1cc(Cl)ccc1OC)c1ccc(F)cc1` [Example 104, (R)-2-[(S)-1-(5-Chloro-2-methoxy-phenyl)-3-(6-trifluoromethyl-pyridin-3-yl)-propylamino]-2-(4-fluoro-phenyl)-N-methyl-acetamide] the figure was 0.0148 µM; with `CNC(=O)C(NC(CCc1ccc(C(F)(F)F)cc1)c1cc(C(C)C)no1)c1ccccc1` (stereo not drawn) [Example 92, 2-[1-(3-Isopropyl-isoxazol-5-yl)-3-(4-trifluoromethyl-phenyl)-propylamino]-N-methyl-2-phenyl-acetamide], 0.007 µM; with `CNC(=O)[C@H](N[C@H](CCc1ccc(Cl)cc1)c1ccc(OC)c(OC)c1Cl)c1ccccc1` (racemic) [Example 41, (S,R)-2-[(S,R)-1-(2-Chloro-3,4-dimethoxy-phenyl)-3-(4-chloro-phenyl)-propylamino]-N-methyl-2-phenyl-acetamide], 0.0167 µM.
